The values below come from PubChem BioAssay AID218 (DTP/NCI, 2004).

Values joined by “and” are separate entries in the source; they are usually repeats but may differ in a detail not shown here. Identical values can stand only once. Non-standard residues stand in square brackets, D forms with d. Residues, ends and D or L forms follow the SMILES beside them. Ac5c = NC1(C(=O)O)CCCC1

This assay relates to C57BL/6 mice, Adenocarcinoma 755 sc, tumor weight T/C. Kind of assay: NCI In Vivo Anticancer Drug Screen. Data for tumor model Adenocarcinoma 755 (subcutaneous) in C57BL/6 mice. The following applies: endpoint: mean tumor weight, higher = larger tumour. Here is the method:
The antitumor activity of compounds was measured in mice bearing transplantable tumors. Survival or tumor size were measured and the results are expressed as the measurement made in the treated group (T) divided by the measurement made in the vehicle treated control group (C). The tumor model used in this assay is Adenocarcinoma 755 (subcutaneous) in C57BL/6 mice

Where [1] appears, read: dose: 25.0 mg/kg/injection, schedule: Q01DX011 (ip), vehicle: carboxymethylcellulose (CMC).
The mark [2] stands for this setting: dose: 75.0 mg/kg/injection, schedule: Q01DX011 (ip), vehicle: carboxymethylcellulose (CMC).
[3] abbreviates: dose: 25.0 mg/kg/injection, schedule: Q01DX011 (ip), vehicle: saline.
Setting [4] is: dose: 50.0 mg/kg/injection, schedule: Q01DX011 (ip), vehicle: saline.
[5] abbreviates: dose: 100.0 mg/kg/injection, schedule: Q01DX011 (ip), vehicle: saline.
Where [6] appears, read: dose: 30.0 mg/kg/injection, schedule: Q02DX006 (ip), vehicle: other.
Setting [7] is: dose: 2.0 mg/kg/injection, schedule: Q01DX011 (ip), vehicle: saline.
Where [8] appears, read: dose: 5.0 mg/kg/injection, schedule: Q01DX011 (ip), vehicle: saline.
The mark [9] stands for this setting: dose: 10.0 mg/kg/injection, schedule: Q01DX011 (ip), vehicle: saline.
[10] abbreviates: dose: 20.0 mg/kg/injection, schedule: Q01DX011 (ip), vehicle: saline.
The mark [11] stands for this setting: dose: 2.5 mg/kg/injection, schedule: Q01DX011 (ip), vehicle: carboxymethylcellulose (CMC).
Where [12] appears, read: dose: 320.0 mg/kg/injection, schedule: Q01DX001 (oral), vehicle: alkali diluted with saline.
Where [13] appears, read: dose: 320.0 mg/kg/injection, schedule: Q03DX004 (oral), vehicle: alkali diluted with saline.
[14] abbreviates: dose: 320.0 mg/kg/injection, schedule: Q07DX002 (oral), vehicle: alkali diluted with saline.
[15] abbreviates: dose: 480.0 mg/kg/injection, schedule: Q01DX001 (oral), vehicle: alkali diluted with saline.
The mark [16] stands for this setting: dose: 480.0 mg/kg/injection, schedule: Q07DX002 (oral), vehicle: alkali diluted with saline.
Setting [17] is: dose: 640.0 mg/kg/injection, schedule: Q01DX001 (oral), vehicle: alkali diluted with saline.
Setting [18] is: dose: 640.0 mg/kg/injection, schedule: Q07DX002 (oral), vehicle: alkali diluted with saline.
The mark [19] stands for this setting: dose: 150.0 mg/kg/injection, schedule: Q02DX006 (ip), vehicle: saline.
Setting [20] is: dose: 200.0 mg/kg/injection, schedule: Q02DX006 (ip), vehicle: saline.
[21] abbreviates: dose: 2.5 mg/kg/injection, schedule: Q01DX011 (ip), vehicle: saline.
The mark [22] stands for this setting: dose: 75.0 mg/kg/injection, schedule: Q01DX011 (ip), vehicle: saline.

As to `CCOC(=O)n1cnc2ncnc(N)c21`, the T/C reads like this: under setting [1], 56 % of control; under setting [2], 104 % of control.
For `NCC(=O)NC1(C(=O)O)CCCC1` (H-Gly-[Ac5c]-OH), the T/C under setting [3] was 58 % of control, the T/C under setting [4] was 37 % of control and the T/C under setting [5] was 9 % of control.
`S=c1nc[nH]c2n[nH]nc12`: the T/C is, setting by setting: under setting [6], 70 % of control; (dose: 75.0 mg/kg/injection, schedule: Q02DX006 (ip), vehicle: other) 14 % of control.
As for `Cn1cnc([N+](=O)[O-])c1Sc1ccccc1`, the T/C is 84 % of control under setting [3], 47 % of control under setting [4] and 53 % of control under setting [5].
Take `CNc1ncnc2c1cnn2C`: the T/C is, setting by setting: under setting [7], 84 % of control; under setting [8], 89 % of control; under setting [9], 120 % of control; under setting [10], 36 % of control.
Consider `Clc1ncnc2c1ncn2C1CCCC1`, for which the T/C under setting [1] is 79 % of control; the T/C (dose: 50.0 mg/kg/injection, schedule: Q01DX011 (ip), vehicle: carboxymethylcellulose (CMC)) was 118 % of control; the T/C under setting [2] was 71 % of control; the T/C (dose: 100.0 mg/kg/injection, schedule: Q01DX011 (ip), vehicle: carboxymethylcellulose (CMC)) is 18 % of control.
On to `OCC1OC(n2cnc3c(=S)nc[nH]c32)C(O)C1O` (centres undefined), for which the T/C (dose: 0.5 mg/kg/injection, schedule: Q01DX011 (ip), vehicle: carboxymethylcellulose (CMC)) was 29 % of control; the T/C (dose: 1.25 mg/kg/injection, schedule: Q01DX011 (ip), vehicle: carboxymethylcellulose (CMC)) was 13 % of control; the T/C under setting [11] was 3 % of control; the T/C (dose: 34.0 mg/kg/injection, schedule: Q01DX011 (ip), vehicle: saline) is 2 % of control; the T/C under setting [12] was 10 % of control; the T/C under setting [13] was 2 % of control. Besides, the T/C is 5 % of control under setting [14]; 12 % of control under setting [15]; 6 % of control (dose: 480.0 mg/kg/injection, schedule: Q03DX004 (oral), vehicle: alkali diluted with saline); 5 % of control under setting [16]; 68 % of control under setting [17]; 1 % of control (dose: 640.0 mg/kg/injection, schedule: Q03DX004 (oral), vehicle: alkali diluted with saline). For the same compound, under setting [18], the T/C is 32 % of control.
Regarding `c1cn[nH]c1`, the T/C (dose: 8.0 mg/kg/injection, schedule: Q01DX006 (iv), vehicle: saline) was 64 % of control; the T/C (dose: 12.5 mg/kg/injection, schedule: Q01DX011 (oral), vehicle: saline) was 61 % of control; the T/C (dose: 25.0 mg/kg/injection, schedule: Q01DX011 (oral), vehicle: saline) is 45 % of control; the T/C (dose: 32.0 mg/kg/injection, schedule: Q01DX006 (iv), vehicle: saline) was 94 % of control; the T/C (dose: 50.0 mg/kg/injection, schedule: Q01DX011 (oral), vehicle: saline) was 9 % of control; the T/C (dose: 64.0 mg/kg/injection, schedule: Q01DX006 (iv), vehicle: saline) is 53 % of control.
Turning to `NC(=O)c1ccc(N)nc1`, the T/C (dose: 1.0 mg/kg/injection, schedule: Q01DX011 (ip), vehicle: saline) was 92 % of control and 94 % of control; the T/C (dose: 1.5 mg/kg/injection, schedule: Q01DX011 (ip), vehicle: saline) was 52 % of control; the T/C under setting [7] was 48 % of control.
In the case of `N/C(=N/N=C/c1ccc([N+](=O)[O-])cc1)N[N+](=O)[O-]`, the T/C is, setting by setting: under setting [19], 53 % of control; under setting [20], 37 % of control.
For the compound `Nc1nc(=S)c2ncn(C3OC(COC(=O)c4ccccc4)C(OC(=O)c4ccccc4)C3OC(=O)c3ccccc3)c2[nH]1` (centres undefined), the T/C (dose: 3.1 mg/kg/injection, schedule: Q01DX011 (ip), vehicle: methylcellulose (MC)) was 90 % of control; the T/C (dose: 6.25 mg/kg/injection, schedule: Q01DX011 (ip), vehicle: methylcellulose (MC)) was 62 % of control; the T/C (dose: 12.5 mg/kg/injection, schedule: Q01DX011 (ip), vehicle: methylcellulose (MC)) is 77 % of control; the T/C (dose: 25.0 mg/kg/injection, schedule: Q01DX011 (ip), vehicle: methylcellulose (MC)) was 16 % of control.
As for `S=c1nc[nH]c2nc[nH]c12`, the T/C reads like this: (dose: 1.5 mg/kg/injection, schedule: Q01DX011 (ip), vehicle: carboxymethylcellulose (CMC)) 26 % of control; under setting [11], 7 % of control; under setting [21], 4 % of control; under setting [8], 8 % of control and 13 % of control; (dose: 5.0 mg/kg/injection, schedule: Q01DX011 (oral), vehicle: carboxymethylcellulose (CMC)) 1 % of control; (dose: 6.0 mg/kg/injection, schedule: Q01DX011 (ip), vehicle: carboxymethylcellulose (CMC)) 4 % of control. Further, the T/C runs as follows: (dose: 10.0 mg/kg/injection, schedule: Q02DX006 (ip), vehicle: other) 2 % of control; (dose: 15.0 mg/kg/injection, schedule: Q01DX011 (ip), vehicle: saline) 6 % of control; (dose: 20.0 mg/kg/injection, schedule: Q01DX011 (ip), vehicle: carboxymethylcellulose (CMC)) 2 % of control; (dose: 20.0 mg/kg/injection, schedule: Q01DX011 (oral), vehicle: alkali diluted with saline) 2 % of control; (dose: 20.0 mg/kg/injection, schedule: Q02DX006 (ip), vehicle: other) 2 % of control; under setting [6], 3 % of control. Besides, the T/C was 2 % of control (dose: 40.0 mg/kg/injection, schedule: Q01DX011 (oral), vehicle: alkali diluted with saline); 1 % of control (dose: 80.0 mg/kg/injection, schedule: Q01DX011 (oral), vehicle: alkali diluted with saline); 11 % of control under setting [12]; 1 % of control under setting [13]; 5 % of control under setting [14]; 8 % of control under setting [15]. In addition, the T/C under setting [16] is 4 % of control; the T/C under setting [17] was 9 % of control; the T/C under setting [18] is 2 % of control; the T/C (dose: 960.0 mg/kg/injection, schedule: Q01DX001 (oral), vehicle: alkali diluted with saline) was 11 % of control.
Consider `CCCCNc1ncnc2nc[nH]c12`, for which the T/C (dose: 30.0 mg/kg/injection, schedule: Q01DX011 (ip), vehicle: carboxymethylcellulose (CMC)) is 91 % of control.
Consider `COC(=O)C(N)CCl` (centres undefined), for which the T/C is 74 % of control under setting [19] and 83 % of control under setting [20].
For `CN(C)c1ncnc2c1ncn2C1OC(CO)C(N)C1O` (centres undefined), the T/C is, setting by setting: under setting [10], 23 % of control; under setting [3], 62 % of control; (dose: 30.0 mg/kg/injection, schedule: Q01DX011 (ip), vehicle: saline) 13 % of control; (dose: 35.0 mg/kg/injection, schedule: Q01DX011 (ip), vehicle: saline) 9 % of control.
Take `CCc1nc(N)nc(N)c1-c1ccc(Cl)cc1`: the T/C under setting [4] was 67 % of control.
As for `c1ccc(Sc2ncnc3nc[nH]c23)cc1`, the T/C under setting [4] was 15 % of control, the T/C under setting [22] is 14 % of control and the T/C under setting [5] is 5 % of control.
As to `Nc1nc(SCc2ccccc2)c2[nH]cnc2n1`, the T/C runs as follows: under setting [21], 17 % of control; under setting [8], 5 % of control; under setting [9], 2 % of control.
Regarding `O=P1(N(CCF)CCF)NCCCO1` (centres undefined), the T/C reads like this: (dose: 0.94 mg/kg/injection, schedule: Q01DX011 (ip), vehicle: saline) 40 % of control; (dose: 1.88 mg/kg/injection, schedule: Q01DX011 (ip), vehicle: saline) 56 % of control; (dose: 3.75 mg/kg/injection, schedule: Q01DX011 (ip), vehicle: saline) 22 % of control.
Take `CCOc1ccccc1C(=O)Nc1ccc(Br)cc1`: the T/C under setting [22] is 94 % of control; the T/C (dose: 150.0 mg/kg/injection, schedule: Q01DX011 (ip), vehicle: saline) was 98 % of control; the T/C (dose: 300.0 mg/kg/injection, schedule: Q01DX011 (ip), vehicle: saline) was 75 % of control; the T/C (dose: 600.0 mg/kg/injection, schedule: Q01DX011 (ip), vehicle: saline) was 51 % of control.

Broadly, the T/C is the result in the treated group divided by that in the control group, in per cent.
